Bridge positions count the residues as written; N and C are the ends. Peptide text beside a SMILES is read from it.
Columns and labels:
[1] = tested on: signaling proteins in HUVECs; assay: Western blot analysis, HUVECs; type: cell-based, human; details: 0.40 μM
Procedure: Next, to explore the mechanisms of the antiangiogenic property of C-VGB3, canonical signaling pathways mediated by VEGFR2 were assessed in HUVECs after 24 h incubation with C-VGB3 (0.40 μM). The binding of VEGF to VEGFR2 causes autophosphorylation of its tyrosine kinase domain and increases the receptor′s expression level on the cell surface. Therefore, we evaluated the ability of C-VGB3 to suppress the levels of constitutive and phosphorylated VEGFR2 in HUVECs.
The levels of signaling proteins were investigated by the Western blot assay. 4T1 and HUVE cells stimulated by VEGF (20 ng·mL^−1) were treated with (0.40 μM) or without C-VGB3 (treatment and control groups, respectively) after starvation in a serum-free medium for 24 h. After washing with PBS buffer twice, the cells were treated with RIPA lysis buffer containing (Sigma, St. Louis, MO, USA). Bradford′s test was performed to estimate the protein concentration. Equal amounts of total protein were electrophoresed on a 10% SDS-polyacrylamide gel, separated, and then transferred to a nitrocellulose membrane. Nitrocellulose was soaked in a blocking buffer containing 5% dry milk, Tris-buffered saline, and Tween 20 (TBST) for 1 h at ambient temperature. The nitrocellulose membrane was then washed with wash buffer and treated with antibodies against VEGFR2 p-VEGFR2, AKT, p-AKT, PI3K, mTOR, p-mTOR, NF-κB, p-NFκB, P53, MDM2, Bax, Bcl2, Bid, Bim, Apaf-1, cytochrome c, caspase-9, Fas (CD95), DR4 (CD261), DR5 (CD262), caspase3, caspase7, caspase8, PARP1, ERK 1/2, p-ERK1/2, Ras, Raf, Cdk4, GSK-3β, cyclin D1, vimentin, N-cadherin, E-cadherin, FAK, p-FAK, paxillin, p-paxillin, and β-actin overnight at 4 °C. The next steps were performed as described previously. Because molecular weight ranges of target signaling proteins are very close, individual gels were run for separate signaling proteins (Figure S7).

[2] = tested on: CD31-stained microvessels; assay: CD31 immunohistochemistry of 4T1 tumors (microvessel density); type: in vivo, murine; details: 0.2 mg·kg^−1 i.v.; day 33; n = 3; p = 0.02
Procedure: Figure 2 Loop formation is important for the antitumor activity of VGB3. (A) To investigate the efficacy of VGB3 peptides in vivo 13 days after transplantation of a 4T1 murine MCT into female BALB/c mice (the tumor volume ~150 mm^3), the treatment groups received 0.2 mg·kg^−1 (once every 2 days, i.v.) of either the C-VGB3 or L-VGB3 and the control group received PBS for 20 days. Error bars denote ± SEM. n = 6; **** p < 0.0001, ns = not significant; two-way ANOVA. (B) Investigation of C-VGB3 and L-VGB3 effects on mice weight. […] (C,D) Immunohistochemical (IHC) analyses of CD31 and Ki67 for the C-VGB3-, L-VGB3- and PBS-treated tumors. For IHC staining, the sections of tumor tissues were incubated with the primary mouse monoclonal antibodies for CD31 (1:2000 (v/v)) and Ki67 (5 µg·mL^−1). […] Photographs were taken at 40× magnification. Error bars denote ± SEM. n = 3; * 0.02 ≤ p ≤ 0.04, ns = not significant; one-way ANOVA.
For immunohistochemistry staining, deparaffinized tumor sections were incubated overnight at 4 °C with mouse monoclonal primary anti-Ki67 (5 µg·mL^−1) or anti-CD31 (1:2000 (v/v)). The antigens were detected using 3,3-diaminobenzidine. All images were captured and analyzed with an Olympus BX51 microscope (Olympus America, New York, NY, USA).

## CC(C)C[C@@H]1NC(=O)CNC(=O)[C@H](CC(=O)O)NC(=O)[C@H](CC(=O)O)NC(=O)[C@@H]2CCCN2C(=O)[C@@H]2CCCN2C(=O)[C@H](CCCNC(=N)N)NC(=O)[C@@H](NC(=O)[C@@H](N)CCC(=O)O)CSSC[C@@H](C(=O)O)NC1=O [C-VGB3] (H-ECRPPDDGLC-OH; disulfide 2-10)
[1]; 24 h, p < 0.0001
  AKT level: markedly reduced
  CDK4 level: decreased
  RAS level: decreased
  mTOR total expression: strongly suppressed
  p-AKT level: markedly reduced
  p-VEGFR2 formation: markedly inhibited
[1]; 24 h, p = 0.0001
  CyclinD1 level: decreased
  p-ERK1/2 level: decreased
[1]; 24 h, p = 0.001
  GSK3 expression: increased expression
  NF-κB phosphorylation: suppressed
  PI3K expression level: decreased
  RAF level: decreased
  VEGFR2 level: markedly inhibited
  mTOR phosphorylation: strongly suppressed
[1]; 24 h, p = 0.02
  ERK1/2 level: decreased
  NF-κB expression: decreased
[1]; HUVECs (first of 'respectively'), p < 0.0001
  increase in cleaved PARP1: 3.50 fold
[1]; HUVECs
  increase in Bax/Bcl2 ratio: approximately 3.35 fold
  increased level of cleaved caspase-3: 3.8 times
  increased level of cleaved caspase-7: 3.3 times
  increased level of cleaved caspase-9: 1.4 times
[1]; HUVECs, p < 0.0001
  Bid expression level: increased
[1]; HUVECs, p = 0.0001
  Apaf1: increase
  Bax level: increased
  Bcl2 expression: decrease
  P53 level: enormously increased
[1]; HUVECs, p = 0.001
  Bim level: increased
  DR4 level: increase
  MDM2 level: markedly decreased
[1]; HUVECs, p = 0.02
  DR5 level: increase
  Fas expression: slightly increased
  cytochrome c: increase
[2]
  reduction in vessel density (CD31): 84%

From publication PMC10305181, “A VEGFB-Based Peptidomimetic Inhibits VEGFR2-Mediated PI3K/Akt/mTOR and PLCγ/ERK Signaling and Elicits Apoptotic, Antiangiogenic, and Antitumor Activities” (Pharmaceuticals, 2023)
